Calls of active or inactive are those of the source. Some results are limits rather than exact numbers.

The target of experiment [1] is Beta Lactamase (Pseudomonas aeruginosa, UniProt Q932Y6). The experiment is described as follows: BLA reporter interference, concentration series – BLA reporter cells, FRET fluorescence, artefact control for TLR9-MyD88 binding inhibitor project, dose response (AID 588341).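 Note: cell based assay in CHO-K1 cells stably expressing beta-lactamase.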 The class given is cell-based.
Sequence of Beta Lactamase (Q932Y6 whole entry): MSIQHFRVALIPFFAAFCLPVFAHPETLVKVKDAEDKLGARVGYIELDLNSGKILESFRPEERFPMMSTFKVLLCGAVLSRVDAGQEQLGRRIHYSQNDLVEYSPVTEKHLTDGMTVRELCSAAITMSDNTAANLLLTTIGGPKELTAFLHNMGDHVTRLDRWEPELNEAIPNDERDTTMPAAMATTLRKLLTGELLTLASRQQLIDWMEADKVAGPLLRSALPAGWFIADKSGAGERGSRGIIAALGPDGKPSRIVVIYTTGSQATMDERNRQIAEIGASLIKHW
Experiment [2] deals with HeLa. The experiment is described as follows: ATP-based viability loss in HeLa cells – cell-based, CellTiter-Glo luminescence, cherry-pick samples, cytotoxicity control for MITF activator project, dose response (AID 540259). The class given is functional. Particulars: Homo sapiens. A general note: ATP-based viability assays read luminescence as a measure of living cells.

Experiment [3] deals with CHO. Put plainly: CHO cell viability loss, potency – luminescence, cytotoxicity control for TLR9-MyD88 binding inhibitor project, dose response (AID 588339).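 Note: CHO cells stably coexpressing TLR9 and MyD88 fusions from primary screen; compound exposure lasted 48 hours before viability readout.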 The class given is functional, cell-based, hamster. Particulars: Cricetulus griseus.
The test system of experiment [4] is HEK293. Put plainly: EBV LMP1 TES2 canonical NF-kB signalling blockers – cell-based, HEK293, luciferase, cherry-pick, dose response (AID 588343). The class given is functional. The following applies: Homo sapiens.
Experiment [5] is described as follows: alpha-synuclein stem-loop luciferase translation blockers – H4 neuroglioma cells, luminescence, confirmation (AID 1988). The class given is functional, cell-based.
Experiment [6] can be described thus: blockers of bursicon-stimulated LGR2 cAMP reporter – cell-based, HEK293, CRE-luciferase reporter, cherry pick, set 2, dose response (AID 743343).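 Note: transfected cells were stimulated with diluted bursicon conditioned medium after compound addition.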 The class given is functional. Background: In a reporter assay the amount or activity of a reporter protein is the signal.
The nature of experiment [7]: A549 cell cytotoxicity, dose response, cytotoxicity control, plate reader, cherry-pick, antagonist series (AID 743412). The class given is functional, cell-based.
The nature of experiment [8]: blockade of melanocortin 4 receptor signaling – cell-based, plate reader, cherry pick, counter-screen for LGR2 antagonist project, dose response (AID 743444).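 Note: transfected HEK 293 cells stimulated with alpha-MSH peptide; potency of inhibitors of the alpha-MSH evoked signal.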 The class given is functional. For orientation: Counterscreens check selectivity or assay interference.
A short description of experiment [9]: viability loss in HEK293 cells – cell-based, plate reader, cherry-picked samples, cytotoxicity control, dose response (AID 743446). The class given is functional.
Experiment [10] can be described thus: toxicity toward HepG2 liver cells – cell-based, plate reader, cherry-pick, antagonist series, cytotoxicity control, dose response (AID 743416). The class given is functional.
Experiment [11] is described as follows: Luminescence Cell-Based Dose Response HTS to Identify Inhibitors of 5'UTR Stem-Loop Driven Prion Protein mRNA Translation in H4 Neuroglioblastoma Cells. [Related pubchem assays: 1827 (Project Summary), 1813 (Primary HTS)]. The class given is functional.
The target of experiment [12] is T1, Endoribonuclease toxin MazF (Escherichia coli K-12, UniProt P0AE70).
T1 sequence (P0AE70 whole entry): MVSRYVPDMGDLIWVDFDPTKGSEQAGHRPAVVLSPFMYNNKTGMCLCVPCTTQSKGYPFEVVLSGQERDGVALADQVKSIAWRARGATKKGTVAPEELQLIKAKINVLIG
Put plainly: activation of MazEF endoribonuclease cleavage – biochemical, fluorescence, single-stranded RNA substrate, uHTS hits, dose response (AID 588481). The class given is functional.

Experiment [13] addresses Arf-GAP with SH3 domain, ANK repeat and PH domain-containing protein 1 (Homo sapiens, UniProt Q9ULH1). The class given is functional.
The target of experiment [14] is T1, Endoribonuclease toxin MazF. The experiment is described as follows: substrate-only fluorescence increase artefacts – biochemical, single-stranded RNase substrate, counter-screen for MazEF activator project, dose response (AID 588502). The class given is functional.

Sequence of Arf-GAP with SH3 domain, ANK repeat and PH domain-containing protein 1 (Q9ULH1 whole entry, the tested form may be a part): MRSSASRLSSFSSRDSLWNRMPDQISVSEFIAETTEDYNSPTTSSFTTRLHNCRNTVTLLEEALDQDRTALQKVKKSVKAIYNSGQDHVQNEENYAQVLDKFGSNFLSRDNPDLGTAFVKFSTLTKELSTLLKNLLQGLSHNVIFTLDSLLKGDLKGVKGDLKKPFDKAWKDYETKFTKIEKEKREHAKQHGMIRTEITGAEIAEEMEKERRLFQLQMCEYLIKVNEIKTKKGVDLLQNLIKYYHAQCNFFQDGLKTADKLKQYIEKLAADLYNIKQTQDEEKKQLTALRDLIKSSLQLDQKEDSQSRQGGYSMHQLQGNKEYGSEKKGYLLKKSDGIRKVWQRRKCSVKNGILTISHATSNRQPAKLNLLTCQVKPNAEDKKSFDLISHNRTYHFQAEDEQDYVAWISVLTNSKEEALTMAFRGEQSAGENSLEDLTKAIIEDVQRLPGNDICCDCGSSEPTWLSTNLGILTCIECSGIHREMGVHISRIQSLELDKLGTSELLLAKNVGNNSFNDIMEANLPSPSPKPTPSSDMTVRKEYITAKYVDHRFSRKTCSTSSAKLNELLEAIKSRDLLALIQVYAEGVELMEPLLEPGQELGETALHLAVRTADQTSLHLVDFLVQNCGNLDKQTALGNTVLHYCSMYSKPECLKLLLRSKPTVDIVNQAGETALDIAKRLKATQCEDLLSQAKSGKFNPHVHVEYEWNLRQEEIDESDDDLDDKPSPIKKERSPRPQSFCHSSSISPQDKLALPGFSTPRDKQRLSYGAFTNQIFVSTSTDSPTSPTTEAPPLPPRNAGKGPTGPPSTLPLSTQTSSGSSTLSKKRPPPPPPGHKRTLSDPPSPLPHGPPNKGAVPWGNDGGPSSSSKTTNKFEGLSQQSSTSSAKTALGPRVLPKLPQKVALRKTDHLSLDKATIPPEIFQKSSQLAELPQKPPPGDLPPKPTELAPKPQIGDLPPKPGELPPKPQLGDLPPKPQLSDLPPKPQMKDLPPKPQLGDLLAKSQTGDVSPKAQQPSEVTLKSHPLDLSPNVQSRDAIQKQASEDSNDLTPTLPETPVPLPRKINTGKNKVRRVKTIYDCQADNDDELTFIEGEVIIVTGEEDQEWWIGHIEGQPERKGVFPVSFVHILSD

Consider `Nc1c(C(=O)N2CCCC2)sc2nc(-c3ccccc3)ccc12`, for which the IC50 – broadly, the point on the concentration scale where inhibition reaches its midpoint – in experiment [1] was 12.4 µM (inactive); in experiment [3] it was > 49.7 µM (inactive). The AC50 (usually the midpoint of the concentration-response curve, whichever way the signal moves) in experiment [2] was 197 µM (active).
Consider `O=C(Nc1ccccn1)c1onc2c1CCCC2`, for which the AC50 in experiment [4] was 1.46 µM (active); in [6] it was 3.65 µM (active); in experiment [7], 45.1 µM (active); in experiment [8] it was 3.55 µM (active); in experiment [9], > 52 µM (inactive); in experiment [10], 15.9 µM (active). The EC50 (in general, the concentration that produces a half-maximal response) in experiment [5] is 4.67 µM (active); in [11] it was 50.2 µM (active).
As for `COc1cc2c3nnc(-c4ccc(F)cc4)c-3cn(Cc3cccc(C)c3)c2cc1OC`, the EC50 in experiment [12] was 24.1 µM (inactive); in experiment [14], 16.7 µM (active). Moreover, the IC50 in experiment [1] was 3.92 µM (active); in experiment [13], 7.44 µM (active); in experiment [3], 10.2 µM (inactive).

The values above are taken from ChEMBL document CHEMBL1201862, “PubChem BioAssay data set” (2004).
